# Source: patent publication US7390826B2, “Inhibitors of animal cell motility and growth” (The Board of Trustees of The University of Illinois, priority 2002, dated 2008)
# Read-outs that look alike come from different tables or passages of the source.
# Tested on: Xenopus laevis embryos
# Experiment: frog embryo morphogenesis assay (scoring of developmental defects)
# Assay type: in vivo
# Conditions: for EC50: Xenopus laevis, 72 h
# Text: In order to identify compounds that specifically perturb morphogenesis in the frog embryo, a suitable method for scoring embryos by characteristic defects was developed. A useful starting point was the “dorso-anterior index” (DAI). The DAI originally was constructed by adding new morphological characteristics to the older “index of axis deficiency” (S. R. Scharf et al., Dev. Biol., 99, 75-87 (1983)). The DAI is a scale of dorsoanterior development wherein embryos are assigned a score based on degree of dorsoanterior phenotype (K. R. Kao et al., Dev. Biol., 127, 64-77 (1988)). The scale encompasses a score of 0 (for the most axis-deficient or ventralized embryos) to 10 (for embryos with the most enhanced dorsoanterior structures), with a score of 5 signifying a normal embryo.
# Because the DAI focuses only on dorsoanterior phenotypes, other categories were added to describe possible defects more comprehensively, with an emphasis on characteristics that are easily and unambiguously recognized in intact embryos, and that are diagnostic of possible effects on morphogenesis during gastrulation and neurulation. The most useful and readily scored categories that covered the most frequent deficiencies were: reduced anterior structures and microcephaly, delayed appearance or absence of eye pigmentation, overall shortness along the anteroposterior axis, bent axis, bent tail only, reduced posterior structures/tail, malformed or reduced fins, delayed or failed neural tube closure (neural fold fusion), abnormal pigmentation pattern, ventral swelling (edema), and delayed or abnormal visceral organogenesis and yolk resorption. In addition, blastopore closure, an earlier process that marks the completion of gastrulation, was observed.
# In these tests, test compounds were added individually to wells each containing 4-8 embryos in 12-well plates. Embryos at stage 8.5-9, according to the classification of Nieuwkoop and Faber (P. I. Nieuwkoop et al., Normal Table of Xenopus laevis (Daudin). Amsterdam: North-Holland Publ.) (1967)), were used because these are late blastula stages before gastrulation begins at stage 10, which allowed focusing primarily on compounds that affect morphogenetic events in gastrulation and neurulation. These embryos, therefore, have undergone a midblastula transition at stage 8 (cleavage division 12) when zygotic transcription begins (J. Newport et al., Cell, 30, 675-686 (1982); J. Newport et al., Cell, 30, 687-696 (1982)) but have not yet started the morphogenetic movements of gastrulation.
# Standard procedures were used in the care of animals, gamete preparation, fertilization of oocytes, and culture of embryos (B. K. Kay et al., Methods in Cell Biology, Volumn 36 (San Diego: Academic Press, Inc.) (1991)). In order to stimulate ovulation, female frogs were injected with 500 units of human chorionic gonadotropin (HCG). Eggs were squeezed from female frogs 12 hours later. Testes were removed from euthanized male frogs that had been primed with 50 units of HCG 4-6 hours earlier. The testes were stored at 4° C. in single strength Marc's Modified Ringer's solution with 50 μg/ml gentamycin and used for no more than 10 days. Small pieces of testes were macerated and spread over eggs for in vitro fertilization in Petri dishes. Fertilized eggs were placed in one-tenth strength Modified Barth's Saline (MBS) with 50 μg/ml gentamycin at constant temperature (19° C.) in a temperature-controlled incubator and development allowed to proceed under these conditions. Embryos were dejellied by briefly swirling them in a solution of 2% (w/v) L-cysteine, pH 8.0. The embryos then were rinsed extensively with one-tenth strength MBS to wash out the cysteine. Experiments were started within an hour of dejellying the embryos.
# Experiments were carried out in 12-well flat-bottom polystyrene plates with 4-8 embryos per well in 1.0 ml of one-tenth strength MBS with 50 μg/ml gentamycin at 19° C. […]
smiles,measurement,setting,value
"C/C=C/C(=O)N1C(=O)OC[C@@H]1Cc1ccccc1 [Compound 1, (4S)-3-((E)-2-butenoyl)-4-benzyl-2-oxazolidinone]",reduction in the length of the tail,15 μM added at 2-cell stage,evident
same,"effects on anteroposterior elongation, head and eye development, visceral organogenesis and yolk resorption","15 μM added at 2-cell stage, 48 hours",significant effects
same,"anteroposterior length, head development, eye pigmentation, visceral organogenesis and yolk resorption versus control embryos","15 μM added at stage 8.5-9, 48, 72 or 96 hours after treatment, Student's t-test",significantly different
same,exposure before washing out with no significant effect on later development,"15 μM, stage 8.5-9 embryos",up to 9 hours
same,exposure resulting in significant defects in postneurula analyses,"15 μM, stage 8.5-9 embryos",≥ 12 h
same,EC50,read-out: EC50 with respect to the defective phenotype at 72 hr following treatment,13.9 µM
same,EC50,read-out: log EC50+standard error of log EC50 (converted),13.9 µM
same,concentration lethal to the embryos,frog embryos,2 to 3 times the EC50
same,blastopore closure in gastrulating embryos,treatment at stage 8.5-9 or 2-cell stage,delayed
